Data published in ChEMBL document CHEMBL5537110, “SIRT1-dependent mitochondrial biogenesis supports therapeutic effects of 4-butyl-polyhydroxybenzophenone compounds against NAFLD” (Eur J Med Chem, 2023).
pKd: −log10 of the molar value. Calls of active or inactive are those of the source. No cut-off for these calls is given here.

Experiments:
[1] = target: T1, Peroxisome proliferator-activated receptor gamma coactivator 1-alpha (Homo sapiens) (UniProt Q9UBK2); assay: Binding affinity to PGC1alpha in human HepG2 cells assessed as increase in thermal stability of protein pretreated with compound for 30 mins followed by incubation at 50 degC for 3 mins by CETSA-WB analysis; type: cell-based; conditions: filed as activator, dose 80-320 µM, time 33.0 min
T1 sequence (whole entry): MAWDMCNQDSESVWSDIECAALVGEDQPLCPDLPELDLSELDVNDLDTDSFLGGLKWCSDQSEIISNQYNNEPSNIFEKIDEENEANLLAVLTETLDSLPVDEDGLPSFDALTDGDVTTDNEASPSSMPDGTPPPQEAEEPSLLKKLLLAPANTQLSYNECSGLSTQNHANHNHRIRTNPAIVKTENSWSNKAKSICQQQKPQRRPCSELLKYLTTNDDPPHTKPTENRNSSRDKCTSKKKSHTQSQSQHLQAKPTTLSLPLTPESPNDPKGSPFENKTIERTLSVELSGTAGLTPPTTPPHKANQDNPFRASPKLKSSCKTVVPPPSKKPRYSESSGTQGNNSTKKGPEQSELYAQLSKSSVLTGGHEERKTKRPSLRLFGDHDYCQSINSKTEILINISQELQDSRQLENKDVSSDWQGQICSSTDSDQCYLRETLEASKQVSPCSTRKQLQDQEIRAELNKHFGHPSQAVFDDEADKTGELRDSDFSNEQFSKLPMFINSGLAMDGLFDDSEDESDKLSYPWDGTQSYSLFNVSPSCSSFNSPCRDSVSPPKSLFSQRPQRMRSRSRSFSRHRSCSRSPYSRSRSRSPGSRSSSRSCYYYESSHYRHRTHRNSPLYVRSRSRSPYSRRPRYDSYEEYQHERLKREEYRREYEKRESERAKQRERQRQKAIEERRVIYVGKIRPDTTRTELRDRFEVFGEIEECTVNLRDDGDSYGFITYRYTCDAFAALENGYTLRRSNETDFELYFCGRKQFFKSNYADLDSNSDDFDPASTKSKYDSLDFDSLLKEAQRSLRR

HepG2 [2] = assay: Induction of mitochondrial biogenesis in human HepG2 cells assessed as PGC1alpha mRNA expression incubated for 24 hrs in presence of SIRT1 inhibitor, EX527 by qRT-PCR analysis; type: functional, cell-based
HepG2 [3] = assay: Inhibition of lipid toxicity in 40% FBS-induced steatosis human HepG2 cells model assessed as decrease in lipid accumulation at 0.2 to 5 uM incubated with compound for 24 hrs followed by replacement with steatosis inducing DMEM with 40% FBS medium by Oil red O staining based analysis; type: functional, cell-based; conditions: dose 0.2-5 µM
HepG2 [4] = assay: Induction of SIRT1/PGC1alpha interaction in human HepG2 cells at 5 umol/L by co-immunoprecipitataion analysis; type: cell-based; conditions: filed as activator, dose 5.0 µmol/L
HepG2 [5] = assay: Recovery of mitochondrial biogenesis in 40% FBS-induced steatosis human HepG2 cells model assessed as increase in mitochondrial COX1 mRNA expression incubated for 24 hrs by qRT-PCR analysis; type: functional, cell-based; conditions: dose 0.2-5 µM
HepG2 [6] = assay: Recovery of mitochondrial biogenesis in 40% FBS-induced steatosis human HepG2 cells model assessed as increase in mitochondrial ND6 mRNA expression incubated for 24 hrs by qRT-PCR analysis; type: functional, cell-based; conditions: dose 0.2-5 µM
[7] = target: T2, NAD-dependent protein deacetylase sirtuin-1 (Homo sapiens) (UniProt Q96EB6); assay: (§1) Binding affinity to SIRT1 (unknown origin) by surface plasmon resonance assay; conditions: filed as activator
T2 sequence (whole entry): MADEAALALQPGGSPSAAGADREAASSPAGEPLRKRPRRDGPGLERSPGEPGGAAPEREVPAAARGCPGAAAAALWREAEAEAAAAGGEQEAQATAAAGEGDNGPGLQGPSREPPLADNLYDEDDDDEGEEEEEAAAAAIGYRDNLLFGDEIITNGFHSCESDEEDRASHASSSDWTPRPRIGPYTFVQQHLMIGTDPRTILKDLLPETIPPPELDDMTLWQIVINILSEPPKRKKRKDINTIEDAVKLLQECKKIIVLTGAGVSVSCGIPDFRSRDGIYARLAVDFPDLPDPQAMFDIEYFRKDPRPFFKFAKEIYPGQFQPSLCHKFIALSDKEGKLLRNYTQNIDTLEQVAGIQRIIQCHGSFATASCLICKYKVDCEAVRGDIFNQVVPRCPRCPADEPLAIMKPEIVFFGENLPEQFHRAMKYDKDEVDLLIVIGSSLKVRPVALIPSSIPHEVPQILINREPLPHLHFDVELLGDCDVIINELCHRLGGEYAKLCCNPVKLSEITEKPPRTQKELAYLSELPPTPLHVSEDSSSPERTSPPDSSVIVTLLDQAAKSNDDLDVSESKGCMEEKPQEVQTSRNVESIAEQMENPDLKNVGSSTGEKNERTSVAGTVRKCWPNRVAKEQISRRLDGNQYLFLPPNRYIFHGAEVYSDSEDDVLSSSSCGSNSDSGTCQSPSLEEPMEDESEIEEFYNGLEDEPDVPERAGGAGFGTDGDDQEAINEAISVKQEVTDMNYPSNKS

[8] = target: T3, NAD-dependent protein deacetylase sirtuin-1 (Homo sapiens, UniProt Q96EB6); assay: as §1
T3 sequence (Q96EB6 whole entry): T2 sequence (whole entry)

HepG2 [9] = assay: Induction of mitochondrial biogenesis in human HepG2 cells assessed as TFAM protein expression incubated for 24 hrs in presence of SIRT1 inhibitor, EX527 by western blot analysis; type: functional, cell-based
Rattus norvegicus [10] = assay: Hepatoprotective activity against high fat diet-fed NAFLD Sprague-Dawley rat model assessed as inhibition of diet-induced body weight gain administered intragastrically via gavage for 4 weeks; type: functional, organism-based; conditions: dose 12.3-61.4 mg/kg, route ig
Rattus norvegicus [11] = assay: Hepatoprotective activity against high fat diet-fed NAFLD Sprague-Dawley rat model assessed as decrease in liver index administered intragastrically via gavage for 4 weeks; type: functional, organism-based; conditions: dose 12.3-61.4 mg/kg, route ig
HepG2 [12] = assay: Recovery of mitochondrial biogenesis in 40% FBS-induced steatosis human HepG2 cells model assessed as increase in SIRT1 protein expression incubated for 24 hrs by western blot analysis; type: functional, cell-based; conditions: dose 0.2-5 µM
HepG2 [13] = assay: Inhibition of oxidative stress in 40% FBS-induced steatosis human HepG2 cells model assessed as reduction in mitochondrial ROS production incubated in steatosis inducing DMEM with 40% FBS medium for 24 hrs followed by compound treatment by MitoSOX Red dye based fluorescence microscopy; type: functional, cell-based; conditions: Mitochondria, dose 0.2-5 µM
HepG2 [14] = assay: Induction of mitochondrial biogenesis in human HepG2 cells assessed as PGC1alpha protein expression incubated for 24 hrs in presence of SIRT1 inhibitor, EX527 by western blot analysis; type: functional, cell-based
HepG2 [15] = assay: Recovery of mitochondrial biogenesis in 40% FBS-induced steatosis human HepG2 cells model assessed as increase in TFAM mRNA expression incubated for 24 hrs by qRT-PCR analysis; type: functional, cell-based; conditions: dose 0.2-5 µM
Rattus norvegicus [16] = assay: Hepatoprotective activity against high fat diet-fed NAFLD Sprague-Dawley rat model assessed as decrease in serum AST level at 12.3 to 61.4 mg/kg, IG administered via gavage for 4 weeks; type: functional, organism-based; conditions: dose 12.3-61.4 mg/kg

Activity [1]: Dose-Dependent Effect | Activity [7]: Dose-Dependent Effect | pKd [8]: 4.11
Compound: CC(C)(C)c1ccc(C(=O)c2ccc(O)c(O)c2)cc1
Activity (HepG2 [2]): inactive | inhibition (HepG2 [3]): Active | Activity (HepG2 [4]): Active | Activity (HepG2 [5]): Dose-Dependent Effect | Activity (HepG2 [6]): Dose-Dependent Effect | Activity (HepG2 [9]): inactive | Activity (Rattus norvegicus [10]): Dose-Dependent Effect | Activity (Rattus norvegicus [11]): Dose-Dependent Effect | Activity (HepG2 [12]): Dose-Dependent Effect | inhibition (HepG2 [13]): Dose-Dependent Effect | Activity (HepG2 [14]): inactive | Activity (HepG2 [15]): Dose-Dependent Effect | Activity (Rattus norvegicus [16]): Active
